# According to patent US11154515B2, “Pharmaceutical compositions comprising cannabidiol and beta-caryophyllene and methods for their use” (priority 2017, dated 2021):
# Where “and” joins values, the source holds several entries; their conditions need not be identical. Equal entries are not always repeated.
# Legend:
# [1] = test system: male NMRI mice, mechanonociceptive threshold of the hind paws; experiment: Carrageenan-induced mechanical hyperalgesia, mechanonociceptive threshold by dynamic plantar aesthesiometry; format: in vivo, mouse; conditions: for carrageenan-induced drop of the mechanonociceptive threshold: 3 hours after carrageenan; for effect on mechanonociceptive threshold when applied alone: CBD 1 mg/kg, BCP 10 mg/kg; for suppression of the mechanonociceptive threshold by carrageenan: most CBD and BCP single pre-treatments, three hours after carrageenan; for basal mechanonociceptive threshold vs vehicle-treated mice: single doses i.p. (CBD 0.5, 1, 10, 30 mg/kg; BCP 1, 5, 10, 30 mg/kg), 30 min after administration
# Protocol: CBD and BCP solutions (≥80%, FCC, FG) were dissolved in a solution containing 10% Tween 80 and 90% saline (vehicle) and were freshly prepared immediately before use. Mice were treated with drug solutions or vehicle control by intraperitoneal (i.p.) injection at a volume of 0.1 mL/10 g body weight. Acute paw injury was induced by intraplantar injection of 20 μL 3% carrageenan (dissolved in 0.9% NaCl, Sigma Aldrich, St. Louis, Mo., USA) into the right hind paw.
# Experiments were performed on 7-16-week-old male NMRI mice (30-50 g) provided with standard chow and water ad libitum. Mice were divided into groups and treated with a single dose of vehicle control (VEH), CBD, BCP, or CBD+BCP delivered i.p. 30 minutes after drug administration, measurements were taken to determine baseline values for mechanonociceptive thresholds and paw volumes. 35 minutes after drug administration, 20 μL of 3% carrageenan was injected intraplantarly (i.pl.) in the right hind paws. 3 hours after carrageenan administration, additional measurements were taken to determine the mechanonociceptive thresholds and paw volumes of the ipsilateral and contralateral paws.
# The mechanonociceptive threshold of the hind paws were measured by dynamic plantar aesthesiometry (DPA, Ugo Basile 37400, Comerio, Italy). Mice were placed into plexiglass boxes with a wire grid floor. After acclimation, the plantar surface was touched with a straight metal filament, lifting with increasing upward force (until the animal withdrew his paw or until the maximum force of 10 g was reached (maximum force of 10 g reached within 4 s). Mechanonociceptive thresholds are expressed in gram (g), while mechanical hyperalgesia is represented as a percentage decrease from the initial withdrawal thresholds (i.e., before drug and carrageenan administration) (Bolcskei K. et al., Pain. 2005; 117:368-76).
# [2] = test system: IL-1α gene expression; experiment: IL-1α gene expression (RT-qPCR) in LPS-stimulated RAW 264.7 macrophages; format: cell-based, murine; conditions: for reduction of LPS-induced expression of IL-1α vs untreated, LPS-stimulated controls (FIG. 3A): CBD 0.1 μM, BCP 0.013 μM (p<0.001), combination 0.1 μM + 0.013 μM (7.7:1, p<0.001); for % decrease in IL1α expression: Table 3A experiment; for % Inhibition Alone, IL-1α gene expression: Table 3B/6 experiment
# Protocol: (§1) RAW 264.7 cells were cultured in Dulbecco's Modified Eagle's Medium (high glucose DMEM, Sigma-Aldrich) supplemented with 10% fetal bovine serum (FBS), 1% L-glutamine, 1% Sodium-pyruvate, 1% Penicillin-Streptomycin (culture medium). The cells were maintained in T75 flasks at 37° C. in humidified air containing 5% CO2 in an incubator and passaged every second-third day.
# (§2) For drug treatment and LPS stimulation, 200,000 cells/well were seeded in 1.5 mL culture medium in a 6-well plate and incubated to allow attachment to the cell culture plate. After attachment, cells were incubated with various concentrations of CBD (0.1 μM, 0.3 μM, 1 μM, 3 μM, 5 μM, 10 μM, and 30 μM) or BCP (0.001 μM, 0.01 μM, 0.013 μM, 0.1 μM, 0.3 μM, 1 μM, 3 μM, 5 μM, 10 μM, and 100 μM), or vehicle (control) for 2 hrs. After the 2 h incubation, 0.1 μg/mL LPS was added to each well to induce inflammation and cells were incubated with LPS for 24 hrs.
# (§3) After the 24 h incubation with LPS, the cells were harvested and gene expression of the pro-inflammatory cytokines interleukin (IL)-1α, IL-1β were measured by quantitative real-time polymerase chain reaction (RT-qPCR) on a Roche Light Cycler 480 QPCR System (Roche Applied Sciences) using the 5′ nuclease assay. Total RNA was isolated using TRIzol (LifeTechnologies), DNase treatment was performed according to the manufacturer's protocol, and then 1 μg of total RNA was reverse-transcribed into cDNA using High Capacity cDNA Kit from Life Technologies Corporation. PCR amplification was performed using the TaqMan primers and probes (assay IDs: Mm00439620_m1 for murine Il1a; Mm00434228_m1 for murine Il1b, Mm00446190_m1 for murine 116, Mm00441263_m1 for murine Cxcl15/Il8). Expression of the housekeeping gene, Gapdh, was used (assay ID: […]) as an internal control. The amount of the transcripts was normalized to those of the housekeeping gene using the ΔCT method. Results are expressed as % decrease in the expression levels of IL1α and IL1β in drug-treated, LPS-stimulated groups compared to the expression of each cytokine gene in the vehicle-treated, LPS-stimulated group (regarded as 100%). All experiments were repeated 2-3 times.
# (§4) For statistical analysis, data were analyzed and graphs were plotted using Origin Pro Plus 6.0 software (Microcal, Northampton, Mass., USA) and Student's two-tailed two samples t-test. p<0.05 values were regarded as significant differences.
# [3] = test system: IL-1β gene expression; experiment: IL-1β gene expression (RT-qPCR) in LPS-stimulated RAW 264.7 macrophages; format: cell-based, murine; conditions: for reduction of LPS-induced expression of IL-1β vs untreated, LPS-stimulated controls (FIG. 3B): CBD 0.1 μM, BCP 0.013 μM (p<0.01), combination 0.1 μM + 0.013 μM (7.7:1, p<0.001)
# Protocol: as §1, §2, §3, §4
# [4] = Table 4 Exp. 1: CBD 0.1 μM, BCP 0.013 μM, CBD + BCP 0.1 μM + 0.013 μM
# [5] = Table 4 Exp. 2: CBD 1 μM, BCP 0.13 μM, CBD + BCP 1 μM + 0.13 μM
# [6] = Table 3A experiment, single agent 0.1 μM
# [7] = Table 3A experiment, single agent 1 μM
# [8] = Table 3A experiment, single agent 5 μM
# [9] = Table 3A experiment, single agent 10 μM
# [10] = Table 3B experiment, single agent 0.1 μM
# [11] = Table 3B experiment, single agent 0.3 μM
# [12] = Table 3B experiment, single agent 1.0 μM
# [13] = Table 3B experiment, single agent 3.0 μM
# [14] = Table 3B experiment, single agent 10 μM
compound,measurement,setting,value
"C=C(C)[C@@H]1CCC(C)=C[C@H]1c1c(O)cc(CCCCC)cc1O [CBD, cannabidiol]",carrageenan-induced drop of the mechanonociceptive threshold,[1]; 0.5 mg/kg CBD alone,not influenced
same,carrageenan-induced drop of the mechanonociceptive threshold,[1]; 1 mg/kg CBD alone,not influenced
same,effect on mechanonociceptive threshold when applied alone,[1],negligible effects
same,suppression of the mechanonociceptive threshold by carrageenan,[1],only mildly influenced
same,basal mechanonociceptive threshold vs vehicle-treated mice,[1],none of the investigated single doses of CBD and BCP influenced the basal mechanonociceptive threshold
same,"reduction of LPS-induced expression of IL-1α vs untreated, LPS-stimulated controls (FIG. 3A)",[2],did not significantly reduce
same,% decrease in IL1α expression,[2]; single agent 0.1 μM,13%
same,% decrease in IL1α expression,[2]; single agent 1 μM,4%
same,% decrease in IL1α expression,[2]; single agent 5 μM,10%
same,% decrease in IL1α expression,[2]; single agent 10 μM,21%
same,"% Inhibition Alone, IL-1α gene expression",[2]; single agent 0.1 μM,0%
same,"% Inhibition Alone, IL-1α gene expression",[2]; single agent 0.3 μM,3.2 ± 0.2%
same,"% Inhibition Alone, IL-1α gene expression",[2]; single agent 1 μM,34.5 ± 6.2%
same,"% Inhibition Alone, IL-1α gene expression",[2]; single agent 3 μM,55.5 ± 4.7% and 55.5 ± 47%
same,% decrease in IL-1α gene expression,[2]; [4],0%
same,% decrease in IL-1α gene expression,[2]; [5],42%
same,concentrations with marked anti-inflammatory effects,"[2]; applied alone, IL-1α and IL-1β gene expression",≥ 1 µM
same,% Inhibition CBD Alone (IL-1β gene expression),[3]; 0.1 μM CBD alone,5.8 ± 1.4%
same,% Inhibition CBD Alone (IL-1β gene expression),[3]; 0.3 μM CBD alone,9 ± 3.6%
same,% Inhibition CBD Alone (IL-1β gene expression),[3]; 1 μM CBD alone,39.2 ± 10.1%
same,% Inhibition CBD Alone (IL-1β gene expression),[3]; 3 μM CBD alone,85.6 ± 10%
same,% Inhibition CBD Alone (IL-1β gene expression),[3]; 10 μM CBD alone,92.2 ± 8.4%
same,"reduction of LPS-induced expression of IL-1β vs untreated, LPS-stimulated controls (FIG. 3B)",[3],did not significantly reduce
same,% decrease in IL1β expression,[3]; [6],19%
same,% decrease in IL1β expression,[3]; [7],11%
same,% decrease in IL1β expression,[3]; [8],31%
same,% decrease in IL1β expression,[3]; [9],33%
same,% decrease in IL1β expression,[3]; [10],5.8 ± 1.4%
same,% decrease in IL1β expression,[3]; [11],9 ± 3.6%
same,% decrease in IL1β expression,[3]; [12],39.2 ± 10.1%
same,% decrease in IL1β expression,[3]; [13],85.6 ± 10%
same,% decrease in IL1β expression,[3]; [14],92.2 ± 8.4%
same,% decrease in IL-1β gene expression,[3]; [4],13%
same,% decrease in IL-1β gene expression,[3]; [5],55%
"C=C1CC/C=C(\C)CC[C@H]2[C@H]1CC2(C)C [BCP, (E)-beta-caryophyllene]",carrageenan-induced mechanical hyperalgesia,"[1]; 30 mg/kg i.p., vs vehicle, p<0.001",significantly reduced
same,effect on mechanonociceptive threshold when applied alone,[1],negligible effects
same,suppression of the mechanonociceptive threshold by carrageenan,[1],only mildly influenced
same,basal mechanonociceptive threshold vs vehicle-treated mice,[1],none of the investigated single doses of CBD and BCP influenced the basal mechanonociceptive threshold
same,"reduction of LPS-induced expression of IL-1α vs untreated, LPS-stimulated controls (FIG. 3A)",[2],did significantly reduce
same,anti-inflammatory actions when applied alone,[2]; IL-1α and IL-1β gene expression,only minor (if any) anti-inflammatory actions
same,% decrease in IL1α expression,[2]; single agent 0.1 μM,2%
same,% decrease in IL1α expression,[2]; single agent 1 μM,18%
same,% decrease in IL1α expression,[2]; single agent 5 μM,26%
same,% decrease in IL1α expression,[2]; single agent 10 μM,0%
same,"% Inhibition Alone, IL-1α gene expression",[2]; single agent 0.001 μM,0%
same,"% Inhibition Alone, IL-1α gene expression",[2]; single agent 0.01 μM,0%
same,"% Inhibition Alone, IL-1α gene expression",[2]; single agent 0.1 μM,1.8 ± 0.2%
same,"% Inhibition Alone, IL-1α gene expression",[2]; single agent 0.3 μM,5.8 ± 1.2%
same,"% Inhibition Alone, IL-1α gene expression",[2]; single agent 1 μM,0%
same,"% Inhibition Alone, IL-1α gene expression",[2]; single agent 3 μM,0%
same,"% Inhibition Alone, IL-1α gene expression",[2]; single agent 10 μM,8.2 ± 4.1%
same,% decrease in IL-1α gene expression,[2]; [4],32%
same,% decrease in IL-1α gene expression,[2]; [5],0%
same,% Inhibition BCP Alone (IL-1β gene expression),[3]; 0.001 μM BCP alone,0%
same,% Inhibition BCP Alone (IL-1β gene expression),[3]; 0.01 μM BCP alone,0%
same,% Inhibition BCP Alone (IL-1β gene expression),[3]; 0.1 μM BCP alone,1.8 ± 0.2%
same,% Inhibition BCP Alone (IL-1β gene expression),[3]; 0.3 μM BCP alone,5.8 ± 1.2%
same,% Inhibition BCP Alone (IL-1β gene expression),[3]; 1 μM BCP alone,0%
same,% Inhibition BCP Alone (IL-1β gene expression),[3]; 3 μM BCP alone,0%
same,% Inhibition BCP Alone (IL-1β gene expression),[3]; 10 μM BCP alone,8.2 ± 4.1%
same,% Inhibition BCP Alone (IL-1β gene expression),"[3]; 100 μM BCP alone, * indicates possibly cytotoxicity",*94.2 ± 11.3%
same,"reduction of LPS-induced expression of IL-1β vs untreated, LPS-stimulated controls (FIG. 3B)",[3],did significantly reduce
same,% decrease in IL1β expression,[3]; [6],11%
same,% decrease in IL1β expression,[3]; [7],19%
same,% decrease in IL1β expression,[3]; [8],62%
same,% decrease in IL1β expression,[3]; [9],7%
same,% decrease in IL1β expression,"[3]; Table 3B experiment, single agent 0.001 μM",0%
same,% decrease in IL1β expression,"[3]; Table 3B experiment, single agent 0.01 μM",0%
same,% decrease in IL1β expression,[3]; [10],1.8 ± 0.2%
same,% decrease in IL1β expression,[3]; [11],5.8 ± 1.2%
same,% decrease in IL1β expression,[3]; [12],0%
same,% decrease in IL1β expression,[3]; [13],0%
same,% decrease in IL1β expression,[3]; [14],8.2 ± 4.1%
same,% decrease in IL1β expression,"[3]; Table 3B experiment, single agent 100 μM",94.2 ± 11.3%
same,% decrease in IL-1β gene expression,[3]; [4],34%
same,% decrease in IL-1β gene expression,[3]; [5],0%
